Measured values published in patent US9340493B2, “Hydroxamic acid derivatives useful as antibacterial agents” (Pfizer Inc., priority 2008, dated 2016).
Converted amounts (≈) assume the structure as drawn.

Legend:
[1] = biological target: T1, Pseudomonas aeruginosa LpxC enzyme (Pseudomonas aeruginosa, UniProt P47205); experiment: IC50 assay, LpxC enzyme from P. aeruginosa; type: biochemical; conditions: 0.5 nM enzyme, 25° C., pH 8.0, 20 min; ** = average of 2-8 assays
T1 construct: made in house; host or cells: E. coli
T1 sequence (P47205 1-303): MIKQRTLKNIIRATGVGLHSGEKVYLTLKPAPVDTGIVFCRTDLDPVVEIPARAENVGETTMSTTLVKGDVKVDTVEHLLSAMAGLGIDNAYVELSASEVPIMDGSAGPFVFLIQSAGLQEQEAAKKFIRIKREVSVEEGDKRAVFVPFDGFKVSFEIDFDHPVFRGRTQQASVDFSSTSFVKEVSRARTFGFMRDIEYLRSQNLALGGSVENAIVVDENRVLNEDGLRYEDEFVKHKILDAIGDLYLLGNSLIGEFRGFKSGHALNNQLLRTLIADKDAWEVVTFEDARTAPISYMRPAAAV
Method: IC50 assay, LpxC enzyme from P. aeruginosa: IC50 determination in the LpxC enzyme assay was carried out in a similar manner to that described by S. A. Hyland et al., J. Bacteriology 1997, 179, 2029-2037. [See also T. Kline et al., J. Medicinal Chemistry 2002, 45, 3112-3129.] Briefly, Pseudomonas aeruginosa LpxC enzyme (0.5 nM) purified from E. coli-overexpressing bacteria was incubated at 25° C. in a final volume of 25 ul containing 0.5 uM UDP-3-O—(R-3-hydroxydecanoyl)-N—[^3H-acetyl]glucosamine (B. D. Maxwell and J. C. Bronstein, J. Labeled Compounds and Radiopharmaceuticals 2005, 48, 1049-1054), 1 mg/ml BSA, and 50 mM sodium phosphate buffer, pH 8.0 in the presence and absence of inhibitor compound. At the end of 20 min, 90 ul of a pre-mixed 3% suspension of activated charcoal in 100 mM sodium acetate, pH 7.5, was added to stop the enzyme reaction. The contents of the well were transferred to a filter plate and filtered, and an aliquot of the filtrate was quantitated by liquid scintillation spectrometry. A no-enzyme control was subtracted in order to eliminate background counts.

P. aeruginosa PAO280 = experiment: MIC determination, P. aeruginosa PAO280; type: cell-based; conditions: Pseudomonas aeruginosa, PAO280, read-out: MIC (ug/mL) P. aeruginosa PAO280
Method: (§1) MIC determinations: The in vitro antibacterial activity of compounds described in the Examples was evaluated by minimum inhibitory concentration (MIC) testing according to Clinical and Laboratory Standards Institute (CLSI, formerly NCCLS) guidelines. See: Clinical and Laboratory Standards Institute. Methods for Dilution Antimicrobial Susceptibility Tests for Bacteria that Grow Aerobically; Approved Standard-Seventh Edition. CLSI document M7-A7 [ISBN 1-56238-587-9]. Clinical and Laboratory Standards Institute, 940 West Valley Road, Suite 1400, Wayne, Pa. 19087-1898 USA, 2006; also Clinical and Laboratory Standards Institute. Performance Standards for Antimicrobial Susceptibility Testing; Eighteenth Informational Supplement. CLSI document M100-S18 [ISBN1-56238-653-0]. Clinical and Laboratory Standards Institute.
(§2) The following bacterial strains were used:
Pseudomonas aeruginosa PA0280: lacks efflux pumps MexAB-oprM, MexXY and MexZ

P. aeruginosa UI-18 = experiment: MIC determination, P. aeruginosa UI-18; type: cell-based; conditions: Pseudomonas aeruginosa, UI18; wild-type; * = arithmetic mean of 2-6 MIC determinations; read-out: MIC (ug/mL) P. aeruginosa UI-18
Method: as §1, §2
P. aeruginosa UI-18: Wild-type;

[2] = system: Staphylococcus aureus ATCC 29213; experiment: MIC determination, S. aureus ATCC 29213; type: cell-based; conditions: ATCC29213, CLSI quality control reference strain, * = arithmetic mean of 2-6 MIC determinations, read-out: MIC (ug/mL) S. aureus ATCC 29213
Method: as §1, §2
Staphylococcus aureus ATCC 29213: CLSI quality control reference strain; and […]

Klebsiella pneumoniae = experiment: MIC determination, K. pneumoniae; type: cell-based; conditions: ciprofloxacin-resistant, ESBL-expressing clinical isolate, * = arithmetic mean of 2-6 MIC determinations, read-out: MIC (ug/mL) K. pneumoniae
Method: as §1, §2
Klebsiella pneumoniae: Ciprofloxacin-resistant isolate, expresses extended-spectrum beta-lactamases (ESBL), clinical isolate;

Enterobacter aerogenes = experiment: MIC determination, E. aerogenes; type: cell-based; conditions: Klebsiella aerogenes; quinolone-resistant, ESBL-expressing clinical isolate; * = arithmetic mean of 2-6 MIC determinations; read-out: MIC (ug/mL) E. aerogenes
Method: as §1, §2
Enterobacter aerogenes: Quinolone-resistant isolate, expresses extended-spectrum beta-lactamases (ESBL), clinical isolate;

[3] = system: Acinetobacter baumanii/haemolyticus; experiment: MIC determination, A. baumanii/haemolyticus; type: cell-based; conditions: Acinetobacter baumannii; multidrug-resistant clinical isolate; * = arithmetic mean of 2-6 MIC determinations; read-out: MIC (ug/mL) A. baumanii/haemolyticus
Method: as §1, §2
Acinetobacter baumanii/haemolyticus: Multidrug-resistant clinical isolate;

Escherichia coli EC-1 = experiment: MIC determination, E. coli EC-1; type: cell-based; conditions: EC1, EC-1: VOGEL, * = arithmetic mean of 2-6 MIC determinations, read-out: MIC (ug/mL) E. coli EC-1
Method: as §1, §2
Escherichia coli EC-1: VOGEL;

COCCNC(=O)C(C)(OCc1ccc(-c2ccccc2)cc1)C(=O)NO (stereo not shown) [Example 74, 2-(biphenyl-4-ylmethoxy)-N-hydroxy-N′-(2-methoxyethyl)-2-methylmalonamide]
IC50 [1]: 0.0139 µM
MIC (P. aeruginosa PAO280): 1 µg/mL (≈ 2.69 µM)
MIC (P. aeruginosa UI-18): 64 µg/mL (≈ 172 µM)
MIC [2]: > 64 µg/mL

CC(OCc1ccc(-c2ccccc2)cc1)(C(=O)NO)C(=O)NC[C@@H]1CCCO1 (stereo partly drawn) [Example 75, 2-(biphenyl-4-ylmethoxy)-N-hydroxy-2-methyl-N′-[(2S)-tetrahydrofuran-2-ylmethyl]malonamide]
IC50 [1]: 0.0126 µM
MIC (P. aeruginosa PAO280): 1 µg/mL (≈ 2.51 µM)
MIC (P. aeruginosa UI-18): 64 µg/mL (≈ 161 µM)
MIC [2]: > 64 µg/mL

CC(OCc1ccc(-c2ccccc2)cc1)(C(=O)NO)C(=O)NCCc1cscn1 (stereo not shown) [Example 76, 2-(biphenyl-4-ylmethoxy)-N-hydroxy-2-methyl-N′-[2-(1,3-thiazol-4-yl)ethyl]malonamide]
IC50 [1]: 0.00848 µM
MIC (P. aeruginosa PAO280): 0.5 µg/mL (≈ 1.18 µM)
MIC (P. aeruginosa UI-18): 64 µg/mL (≈ 150 µM)
MIC [2]: > 64 µg/mL

CC(=O)NCCNC(=O)C(C)(OCc1ccc(-c2ccccc2)cc1)C(=O)NO (stereo not shown) [Example 77, N-(2-acetamidoethyl)-2-(biphenyl-4-ylmethoxy)-N′-hydroxy-2-methylmalonamide]
IC50 [1]: 0.00612 µM
MIC (P. aeruginosa PAO280): 1 µg/mL (≈ 2.5 µM)
MIC (P. aeruginosa UI-18): 64 µg/mL (≈ 160 µM)
MIC [2]: > 64 µg/mL

Cc1n[nH]c(C)c1CNC(=O)C(C)(OCc1ccc(-c2ccccc2)cc1)C(=O)NO (stereo not shown) [Example 78, 2-(biphenyl-4-ylmethoxy)-N-[(3,5-dimethyl-1H-pyrazol-4-yl)methyl]-N′-hydroxy-2-methylmalonamide]
IC50 [1]: 0.0055 µM
MIC (P. aeruginosa PAO280): 1 µg/mL (≈ 2.37 µM)
MIC (P. aeruginosa UI-18): 64 µg/mL (≈ 151 µM)
MIC [2]: > 64 µg/mL

Cc1nnc(CCNC(=O)C(C)(OCc2ccc(-c3ccccc3)cc2)C(=O)NO)[nH]1 (stereo not shown) [Example 79, 2-(biphenyl-4-ylmethoxy)-N-hydroxy-2-methyl-N′-[2-(5-methyl-4H-1,2,4-triazol-3-yl)ethyl]malonamide]
IC50 [1]: 0.00288 µM
MIC (P. aeruginosa PAO280): 1 µg/mL (≈ 2.36 µM)
MIC (P. aeruginosa UI-18): 64 µg/mL (≈ 151 µM)
MIC [2]: > 64 µg/mL

Cc1ncsc1CCNC(=O)C(C)(OCc1ccc(-c2ccccc2)cc1)C(=O)NO (stereo not shown) [Example 80, 2-(biphenyl-4-ylmethoxy)-N-hydroxy-2-methyl-N′-[2-(4-methyl-1,3-thiazol-5-yl)ethyl]malonamide]
IC50 [1]: 0.00899 µM
MIC (P. aeruginosa PAO280): 0.5 µg/mL (≈ 1.14 µM)
MIC (P. aeruginosa UI-18): 64 µg/mL (≈ 146 µM)
MIC [2]: > 64 µg/mL

CC(OCc1ccc(-c2ccccc2)cc1)(C(=O)NO)C(=O)NCCO (stereo not shown) [Example 81, 2-(biphenyl-4-ylmethoxy)-N-hydroxy-N′-(2-hydroxyethyl)-2-methylmalonamide]
IC50 [1]: 0.0261 µM
MIC (P. aeruginosa PAO280): 1 µg/mL (≈ 2.79 µM)
MIC (P. aeruginosa UI-18): 64 µg/mL (≈ 179 µM)
MIC [2]: > 64 µg/mL

CCN1CC(CNC(=O)C(C)(OCc2ccc(-c3ccccc3)cc2)C(=O)NO)CC1=O (stereo not shown) [Example 82, 2-(biphenyl-4-ylmethoxy)-N-[(1-ethyl-5-oxopyrrolidin-3-yl)methyl]-N′-hydroxy-2-methylmalonamide]
IC50 [1]: 0.0486 µM
MIC (P. aeruginosa PAO280): 4 µg/mL (≈ 9.1 µM)
MIC (P. aeruginosa UI-18): > 64 µg/mL
MIC [2]: > 64 µg/mL

CNC(=O)C(C)(OCc1ccc(-c2ccccc2)cc1)C(=O)NO (stereo not shown) [Example 93, 2-(biphenyl-4-ylmethoxy)-N-hydroxy-N′,2-dimethylmalonamide]
MIC (P. aeruginosa PAO280): 0.125 µg/mL (≈ 0.381 µM)
MIC (P. aeruginosa UI-18): 8 µg/mL (≈ 24.4 µM)
MIC (Klebsiella pneumoniae): 64 µg/mL (≈ 195 µM)
MIC (Enterobacter aerogenes): > 64 µg/mL
MIC [3]: > 64 µg/mL
MIC [2]: > 64 µg/mL
MIC (Escherichia coli EC-1): 32 µg/mL (≈ 97.5 µM)
